This is an account of results in ChEMBL document CHEMBL1201862, “PubChem BioAssay data set” (2004).

Active and inactive are the calls of the source. Unless noted, no cut-off for these calls is given here.

One assay has as its target T1, Bcl-2-like protein 10 (Homo sapiens, UniProt Q9HD36).
T1 sequence (Q9HD36 whole entry): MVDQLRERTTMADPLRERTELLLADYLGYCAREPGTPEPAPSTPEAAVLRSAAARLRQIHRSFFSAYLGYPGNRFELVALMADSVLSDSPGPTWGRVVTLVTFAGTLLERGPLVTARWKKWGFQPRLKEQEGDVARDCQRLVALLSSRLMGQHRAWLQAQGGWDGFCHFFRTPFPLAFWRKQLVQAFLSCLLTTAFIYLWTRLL
Put plainly: Isothermal titration calorimetry (ITC) with Bcl-B and compounds active in primary screen. [Related pubchem assays (depositor defined):AID1693]. It counts as functional.

The target of assay [1] is T2, Small ubiquitin-related modifier 1 (Homo sapiens, UniProt P63165). Put plainly: SUMO1 protein interaction blockers, potency – biochemical, fluorescence polarization, uHTS hits, dose response (AID 624382). The class given is functional. The conditions noted are these: read-out: IC50_Mean.
Assay [2] has as its target T2, Small ubiquitin-related modifier 1. Put plainly: SUMO1 protein-protein binding blockers, potency – biochemical, FRET, dose response (AID 624383). The conditions noted are these: read-out: IC50_Mean. The class given is functional.
The target of assay [3] is DNA (cytosine-5)-methyltransferase 1 (Homo sapiens, UniProt P26358). Put plainly: inhibition of DNA methylation by DNMT1 – biochemical, fluorescent molecular beacon, confirmation (AID 602386). It counts as functional.
Assay [4] deals with T3, Carboxy-terminal domain RNA polymerase II polypeptide A small phosphatase 1 (Homo sapiens, UniProt Q9GZU7).
T3 sequence (Q9GZU7 whole entry): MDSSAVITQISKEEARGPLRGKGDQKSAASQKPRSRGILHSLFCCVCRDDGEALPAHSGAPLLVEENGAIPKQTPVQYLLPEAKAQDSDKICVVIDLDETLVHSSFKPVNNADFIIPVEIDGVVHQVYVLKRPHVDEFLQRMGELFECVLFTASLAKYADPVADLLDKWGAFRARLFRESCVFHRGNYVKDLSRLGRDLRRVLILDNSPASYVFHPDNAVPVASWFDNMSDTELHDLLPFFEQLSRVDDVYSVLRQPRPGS
Briefly: CTDSP1 inhibitors, concentration-response, biochemical, absorbance readout, ultra-high-throughput screen actives (AID 540297). It counts as functional.

The target in assay [5] is Beta-adrenergic receptor kinase 1 (Homo sapiens, UniProt P25098). Briefly: aptamer displacement from bead-bound GRK2 – biochemical, cherry pick 1, bead flow cytometry, dose response (AID 504500).
The nature of assay [6]: Luminescence Cell-Based Dose Confirmation HTS to Identify Inhibitors of Platelet Dense Granule Release. [Related pubchem assays: 1663 (Primary HTS), 1678 (Summary of Project)]. The class given is functional.
A short description of assay [7]: Luminescence Cell-Based Dose Response Follow up to Identify Inhibitors of Platelet Dense Granule Release. [Related pubchem assays (depositor defined):AID1663, AID1678, AID2398]. The class given is functional.
Assay [8] in a line: Fluorescence Cell-Based Dose Response to Identify Inhibitors of Thrombin Receptor-Activating Peptide SFLLRN-Mediated P-Selectin Induction on Platelets. [Related pubchem assays: 1663 (Primary HTS), 1889 (retest at dose ), 1891 (counterscreen), 1678 (Project Summary)]. It counts as functional.
Assay [9] can be described thus: blockers of SFLLRN-triggered platelet ATP secretion – cell-based, human platelets, luminescence, dry powder, dose response (AID 493100). It counts as functional.
A short description of assay [10]: PAR1 agonist-induced platelet activation inhibition – cell-based, fluorescence, flow cytometry, human platelets, dose response (AID 2511). It counts as functional.
In assay [11] the target is Luciferin 4-monooxygenase (Photinus pyralis, UniProt P08659). Briefly: inhibition of purified Photinus pyralis luciferase – biochemical, luminescence, dose response (AID 1891).
Assay [12] addresses T4, CAAX prenyl protease 2 (Saccharomyces cerevisiae S288c, UniProt Q03530).
T4 sequence (Q03530 whole entry): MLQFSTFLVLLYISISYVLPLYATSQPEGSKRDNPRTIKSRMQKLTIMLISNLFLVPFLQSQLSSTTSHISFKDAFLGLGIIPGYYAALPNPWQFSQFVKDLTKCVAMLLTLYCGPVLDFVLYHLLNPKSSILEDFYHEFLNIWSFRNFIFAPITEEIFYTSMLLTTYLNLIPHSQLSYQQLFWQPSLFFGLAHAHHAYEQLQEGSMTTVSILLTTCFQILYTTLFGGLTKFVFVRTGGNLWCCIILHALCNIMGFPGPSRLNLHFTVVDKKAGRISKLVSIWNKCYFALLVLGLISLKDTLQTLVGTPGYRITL
Put plainly: inhibition of Rce1p peptide cleavage – biochemical, plate reader, dry powder retest, dose response (AID 588851).

The target of assay [13] is T5, CAAX prenyl protease 2 (Homo sapiens, UniProt Q9Y256). Put plainly: inhibition of Ras-converting CAAX endoprotease – biochemical, plate reader, dry powder samples, dose response (AID 588848).
In assay [14] the target is T4, CAAX prenyl protease 2. It counts as biochemical.
Assay [15] has as its target T5, CAAX prenyl protease 2. Put plainly: inhibition of Ras-converting CAAX protease Rce1 – biochemical, yeast membranes, quenched-peptide fluorescence, cherry-pick, dose response (AID 588849).
Assay [16] concerns the target Beta-2 adrenergic receptor (Homo sapiens, UniProt P07550). Briefly: ADRB2 activation measured by internalization – cell-based, FAP fluorogen, flow cytometry, cherry pick 1, dose response (AID 588763). The class given is functional.
Assay [17] concerns the target Short transient receptor potential channel 6 (Mus musculus, UniProt Q61143). Briefly: mouse TRPC6 channel blockers, concentration series – HEK293 cells, membrane potential dye, IC50, selectivity assay for selective TRPC4 inhibitor project, dose response (AID 492987). The class given is functional, cell-based.
The target of assay [18] is T6, Short transient receptor potential channel 4 (Mus musculus, UniProt Q9QUQ5).
T6 sequence (Q9QUQ5 whole entry): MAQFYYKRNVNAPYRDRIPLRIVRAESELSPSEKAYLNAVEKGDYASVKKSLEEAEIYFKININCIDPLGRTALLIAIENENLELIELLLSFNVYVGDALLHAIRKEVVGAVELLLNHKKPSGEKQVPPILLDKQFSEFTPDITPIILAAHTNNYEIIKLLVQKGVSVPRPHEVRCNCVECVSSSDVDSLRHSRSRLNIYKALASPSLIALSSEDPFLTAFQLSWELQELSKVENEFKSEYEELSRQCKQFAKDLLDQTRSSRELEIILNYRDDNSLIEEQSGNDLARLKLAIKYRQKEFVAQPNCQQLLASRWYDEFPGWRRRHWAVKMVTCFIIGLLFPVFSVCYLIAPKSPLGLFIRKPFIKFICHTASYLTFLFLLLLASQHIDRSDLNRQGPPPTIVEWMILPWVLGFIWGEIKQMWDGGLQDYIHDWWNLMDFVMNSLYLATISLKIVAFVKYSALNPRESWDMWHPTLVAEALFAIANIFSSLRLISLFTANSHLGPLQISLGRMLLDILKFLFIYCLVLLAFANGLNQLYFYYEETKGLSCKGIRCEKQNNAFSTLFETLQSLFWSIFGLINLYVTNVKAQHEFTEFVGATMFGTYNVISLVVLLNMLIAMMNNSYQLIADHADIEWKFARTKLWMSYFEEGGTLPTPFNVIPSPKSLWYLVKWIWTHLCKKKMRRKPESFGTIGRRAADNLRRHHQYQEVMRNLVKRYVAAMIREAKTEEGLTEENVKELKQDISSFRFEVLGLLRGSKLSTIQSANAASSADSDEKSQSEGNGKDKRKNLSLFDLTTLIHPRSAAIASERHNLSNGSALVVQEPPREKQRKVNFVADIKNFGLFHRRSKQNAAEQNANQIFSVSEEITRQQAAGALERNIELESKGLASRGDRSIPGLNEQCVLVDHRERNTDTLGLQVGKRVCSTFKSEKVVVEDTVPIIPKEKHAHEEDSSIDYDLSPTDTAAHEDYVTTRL
Briefly: SAR Analysis for the identification of selective inhibits of the transient receptor potential cation channel C4 (TRPC4): Automated Electrophysiology. [Related pubchem assays (depositor defined):AID2256]. It counts as functional.

For assay [19], the target named is T6, Short transient receptor potential channel 4. Briefly: potency of mouse TRPC4 calcium flux blockers – cell-based, HEK293 TRPC4/mu-opioid, DAMGO stimulus, Fluo-4, dose response (AID 492994). The class given is functional.
The target is the same in assay [20]. Briefly: mouse TRPC4 block via Gq-coupled stimulation – cell-based, acetylcholine stimulus, HEK293 TRPC4, Fluo-4, SAR follow-up (AID 492996). It counts as functional.
Assay [21] has as its target Latent membrane protein 1 (Human herpesvirus 4 (strain B95-8), UniProt P03230). Put plainly: LMP1 TES1 pathway selectivity over dsRED control – imaging, HEK293T, dual-color eGFP/dsRED, cherry-picks, selectivity assay for LMP1 NF-kB inhibitor project, dose response (AID 588398). It counts as functional, cell-based.
The target of a further assay is Phospholipase D1 (Homo sapiens, UniProt Q13393). Briefly: cellular phospholipase D1 inhibition IC50 – cell-based, dose response (AID 602151).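 Note: cellular PLD1 assay in Calu-1 cells stimulated with PMA.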 It counts as functional.
Another assay deals with Phospholipase D2 (Homo sapiens, UniProt O14939). Put plainly: cellular phospholipase D2 inhibition IC50 – cell-based, dose response (AID 602147).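 Note: cellular assay in HEK293 cells overexpressing GFP-tagged PLD2.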 It counts as functional.
Phospholipase D2, sequence (O14939 whole entry): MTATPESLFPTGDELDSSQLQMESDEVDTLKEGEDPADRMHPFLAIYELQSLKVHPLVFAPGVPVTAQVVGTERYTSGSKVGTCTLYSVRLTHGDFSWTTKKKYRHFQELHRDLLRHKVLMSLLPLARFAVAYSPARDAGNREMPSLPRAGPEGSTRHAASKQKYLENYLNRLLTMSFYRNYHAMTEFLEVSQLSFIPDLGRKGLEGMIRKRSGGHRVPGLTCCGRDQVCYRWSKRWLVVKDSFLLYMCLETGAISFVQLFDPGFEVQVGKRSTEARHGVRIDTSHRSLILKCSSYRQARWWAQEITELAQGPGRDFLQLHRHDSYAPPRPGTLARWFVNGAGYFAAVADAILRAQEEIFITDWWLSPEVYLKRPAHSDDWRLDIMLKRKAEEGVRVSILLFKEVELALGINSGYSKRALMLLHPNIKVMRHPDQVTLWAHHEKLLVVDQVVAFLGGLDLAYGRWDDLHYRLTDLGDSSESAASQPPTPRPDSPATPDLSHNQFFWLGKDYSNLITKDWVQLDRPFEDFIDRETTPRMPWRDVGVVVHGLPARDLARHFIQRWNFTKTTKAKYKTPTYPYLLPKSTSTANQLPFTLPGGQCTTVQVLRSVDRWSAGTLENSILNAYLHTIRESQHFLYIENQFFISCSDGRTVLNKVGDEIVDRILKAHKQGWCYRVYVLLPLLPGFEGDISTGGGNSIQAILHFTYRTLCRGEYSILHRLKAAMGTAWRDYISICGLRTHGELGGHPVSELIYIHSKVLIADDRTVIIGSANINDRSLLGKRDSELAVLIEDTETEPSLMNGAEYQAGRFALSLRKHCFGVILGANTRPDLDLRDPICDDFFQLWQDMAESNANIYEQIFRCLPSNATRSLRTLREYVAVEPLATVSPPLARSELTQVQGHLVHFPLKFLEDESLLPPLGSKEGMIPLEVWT

T5 sequence (Q9Y256 whole entry): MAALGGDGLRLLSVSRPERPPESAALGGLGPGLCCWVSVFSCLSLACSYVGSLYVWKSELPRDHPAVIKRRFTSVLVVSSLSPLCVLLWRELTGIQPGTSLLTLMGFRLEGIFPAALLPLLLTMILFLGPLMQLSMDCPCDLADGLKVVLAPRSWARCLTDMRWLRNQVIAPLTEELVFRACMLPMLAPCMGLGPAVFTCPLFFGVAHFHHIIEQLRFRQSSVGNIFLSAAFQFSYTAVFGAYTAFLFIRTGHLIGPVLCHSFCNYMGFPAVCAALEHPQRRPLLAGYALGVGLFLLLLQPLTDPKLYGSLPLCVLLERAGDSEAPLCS
T2 sequence (P63165 whole entry): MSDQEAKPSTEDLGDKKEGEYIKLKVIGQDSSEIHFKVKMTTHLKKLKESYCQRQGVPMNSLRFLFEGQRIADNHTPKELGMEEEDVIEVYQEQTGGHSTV
Latent membrane protein 1, sequence (P03230 whole entry): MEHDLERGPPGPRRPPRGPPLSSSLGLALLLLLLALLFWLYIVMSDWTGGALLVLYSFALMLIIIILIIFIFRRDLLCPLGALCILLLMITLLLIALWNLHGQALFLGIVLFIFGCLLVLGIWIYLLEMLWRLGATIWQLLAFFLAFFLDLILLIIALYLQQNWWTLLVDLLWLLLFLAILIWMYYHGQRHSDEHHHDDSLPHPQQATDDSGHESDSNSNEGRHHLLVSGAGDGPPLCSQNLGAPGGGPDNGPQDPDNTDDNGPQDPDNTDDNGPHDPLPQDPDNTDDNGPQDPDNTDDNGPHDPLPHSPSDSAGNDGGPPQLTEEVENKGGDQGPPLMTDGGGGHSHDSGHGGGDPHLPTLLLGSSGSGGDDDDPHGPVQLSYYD
Beta-adrenergic receptor kinase 1, sequence (P25098 whole entry): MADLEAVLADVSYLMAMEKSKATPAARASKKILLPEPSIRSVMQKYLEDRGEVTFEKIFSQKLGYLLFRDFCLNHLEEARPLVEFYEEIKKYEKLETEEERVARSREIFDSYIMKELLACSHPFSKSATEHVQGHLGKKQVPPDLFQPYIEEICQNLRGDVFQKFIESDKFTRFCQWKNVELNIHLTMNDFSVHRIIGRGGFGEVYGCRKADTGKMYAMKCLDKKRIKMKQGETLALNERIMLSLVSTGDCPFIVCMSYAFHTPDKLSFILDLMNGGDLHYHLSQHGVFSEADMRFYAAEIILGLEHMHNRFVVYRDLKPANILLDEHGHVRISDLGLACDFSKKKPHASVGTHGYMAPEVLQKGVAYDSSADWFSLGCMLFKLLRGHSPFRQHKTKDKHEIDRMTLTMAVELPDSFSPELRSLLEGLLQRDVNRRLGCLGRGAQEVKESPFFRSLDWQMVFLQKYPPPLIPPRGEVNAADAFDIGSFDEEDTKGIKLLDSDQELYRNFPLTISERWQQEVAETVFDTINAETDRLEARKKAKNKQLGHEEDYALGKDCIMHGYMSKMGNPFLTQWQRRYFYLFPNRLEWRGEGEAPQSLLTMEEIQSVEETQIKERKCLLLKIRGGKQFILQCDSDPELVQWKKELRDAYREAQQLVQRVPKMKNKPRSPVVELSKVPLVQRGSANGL
Luciferin 4-monooxygenase, sequence (P08659 whole entry): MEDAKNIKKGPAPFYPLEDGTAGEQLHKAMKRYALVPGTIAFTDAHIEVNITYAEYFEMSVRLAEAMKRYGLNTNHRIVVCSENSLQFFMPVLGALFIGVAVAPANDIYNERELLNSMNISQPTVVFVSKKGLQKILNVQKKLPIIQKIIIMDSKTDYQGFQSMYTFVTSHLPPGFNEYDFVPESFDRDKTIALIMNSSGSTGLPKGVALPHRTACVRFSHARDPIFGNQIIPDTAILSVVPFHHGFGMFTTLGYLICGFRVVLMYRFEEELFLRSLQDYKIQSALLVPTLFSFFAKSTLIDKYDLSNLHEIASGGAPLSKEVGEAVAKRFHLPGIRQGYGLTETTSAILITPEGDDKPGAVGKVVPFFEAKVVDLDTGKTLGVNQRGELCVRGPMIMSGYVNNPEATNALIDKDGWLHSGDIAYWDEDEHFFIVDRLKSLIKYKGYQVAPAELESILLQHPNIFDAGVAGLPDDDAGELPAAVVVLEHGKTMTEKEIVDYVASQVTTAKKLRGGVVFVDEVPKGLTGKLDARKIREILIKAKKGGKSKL
Short transient receptor potential channel 6, sequence (Q61143 whole entry): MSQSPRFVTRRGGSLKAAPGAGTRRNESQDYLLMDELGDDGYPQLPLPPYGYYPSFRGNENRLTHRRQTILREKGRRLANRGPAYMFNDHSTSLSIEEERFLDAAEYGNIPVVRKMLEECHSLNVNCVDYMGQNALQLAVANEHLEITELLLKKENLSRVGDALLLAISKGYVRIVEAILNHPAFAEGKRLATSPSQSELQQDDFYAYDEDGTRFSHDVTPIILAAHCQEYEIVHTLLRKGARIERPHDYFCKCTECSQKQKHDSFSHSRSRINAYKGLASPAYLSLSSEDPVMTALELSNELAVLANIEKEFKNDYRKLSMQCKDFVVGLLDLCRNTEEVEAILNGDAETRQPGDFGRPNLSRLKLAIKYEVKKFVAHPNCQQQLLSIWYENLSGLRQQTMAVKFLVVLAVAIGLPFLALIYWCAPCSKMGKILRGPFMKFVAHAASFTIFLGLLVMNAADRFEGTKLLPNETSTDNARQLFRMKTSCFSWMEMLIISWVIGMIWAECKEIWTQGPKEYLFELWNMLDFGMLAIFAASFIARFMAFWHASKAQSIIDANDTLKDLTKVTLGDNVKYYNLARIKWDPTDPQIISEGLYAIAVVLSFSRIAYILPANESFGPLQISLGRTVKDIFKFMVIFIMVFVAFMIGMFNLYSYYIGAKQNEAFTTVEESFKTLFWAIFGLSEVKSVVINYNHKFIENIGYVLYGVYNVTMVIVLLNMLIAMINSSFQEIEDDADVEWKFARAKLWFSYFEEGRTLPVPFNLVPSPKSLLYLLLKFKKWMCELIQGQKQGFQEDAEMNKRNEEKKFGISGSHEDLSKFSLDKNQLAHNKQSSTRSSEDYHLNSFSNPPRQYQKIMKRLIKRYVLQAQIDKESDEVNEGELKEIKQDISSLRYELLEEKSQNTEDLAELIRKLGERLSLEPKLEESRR
Phospholipase D1, sequence (Q13393 whole entry): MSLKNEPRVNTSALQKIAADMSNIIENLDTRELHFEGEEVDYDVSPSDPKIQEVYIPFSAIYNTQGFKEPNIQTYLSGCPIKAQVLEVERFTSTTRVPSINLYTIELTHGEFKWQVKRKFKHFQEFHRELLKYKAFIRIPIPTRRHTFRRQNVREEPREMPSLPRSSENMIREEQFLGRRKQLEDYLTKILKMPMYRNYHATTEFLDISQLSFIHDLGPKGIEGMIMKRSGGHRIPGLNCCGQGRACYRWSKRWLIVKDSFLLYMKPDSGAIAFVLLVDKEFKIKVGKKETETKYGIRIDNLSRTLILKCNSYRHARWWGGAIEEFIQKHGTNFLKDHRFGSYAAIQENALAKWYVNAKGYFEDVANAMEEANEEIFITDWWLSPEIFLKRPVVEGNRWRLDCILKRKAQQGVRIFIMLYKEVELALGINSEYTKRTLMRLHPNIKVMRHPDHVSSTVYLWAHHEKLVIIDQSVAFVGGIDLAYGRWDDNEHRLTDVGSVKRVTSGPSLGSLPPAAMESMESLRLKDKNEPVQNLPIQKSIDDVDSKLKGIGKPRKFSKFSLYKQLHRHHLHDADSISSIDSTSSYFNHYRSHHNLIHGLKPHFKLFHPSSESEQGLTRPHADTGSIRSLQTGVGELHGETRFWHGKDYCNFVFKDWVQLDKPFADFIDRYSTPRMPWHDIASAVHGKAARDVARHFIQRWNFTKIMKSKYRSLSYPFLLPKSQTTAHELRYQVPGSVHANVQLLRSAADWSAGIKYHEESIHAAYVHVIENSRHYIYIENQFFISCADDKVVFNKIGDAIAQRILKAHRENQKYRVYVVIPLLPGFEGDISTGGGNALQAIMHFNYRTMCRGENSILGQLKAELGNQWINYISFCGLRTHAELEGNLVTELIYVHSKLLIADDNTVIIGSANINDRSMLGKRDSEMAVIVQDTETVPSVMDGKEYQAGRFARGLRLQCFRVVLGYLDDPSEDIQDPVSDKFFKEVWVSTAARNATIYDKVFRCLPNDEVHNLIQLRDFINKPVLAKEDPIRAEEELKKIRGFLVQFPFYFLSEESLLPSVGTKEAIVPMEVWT

Take `Cc1ccc(C=NNC(=O)CSc2nnc(-c3ccc(Cl)cc3)n2-c2ccccc2)o1`: the IC50 on Bcl-2-like protein 10 was 3.16 µM (active).
Regarding `CCOC(=O)C(C)N1C(=O)S/C(=C\c2ccc(-c3ccccc3C(=O)O)o2)C1=O` (centres undefined), the IC50 was > 66.6 µM (inactive) in [1], 10.3 µM (active) in [2], 6.76 µM (active) in assay [3] and 1.88 µM (active) in assay [4]. In addition, the EC50 in [5] is 3.05 µM (active).
For the compound `Cc1ccc(-n2c(N)c(C#N)c(-c3ccccc3)c(C#N)c2=O)cc1`, the EC50 in assay [6] was 3.22 µM (active); in [7] it was 0.36 µM (active); in assay [8], < 0.3 µM (active); in [10], < 3 µM (active); in [11], > 112 µM (not active). The AC50 in [9] is 7.52 µM (active).
As to `CN(C(=O)COC(=O)c1cc([N+](=O)[O-])ccc1Sc1ccccc1)C1CCS(=O)(=O)C1` (centres undefined), the AC50 is 4.85 µM (active) at CAAX prenyl protease 2 [12], 60.6 µM (active) on CAAX prenyl protease 2 [13], 0.55 µM (active) on CAAX prenyl protease 2 [14] and 17.3 µM (active) at CAAX prenyl protease 2 [15].
For the compound `CCOC(=O)c1ccc(N2C(=O)c3[nH]nc(-c4ccco4)c3C2c2cccc([N+](=O)[O-])c2)cc1` (centres undefined), in [16], the EC50 was 0.571 µM (active).
Take `Cc1cc(N2CCCC2)nc2ccccc12`: the IC50 was 11.9 µM (active) in assay [17], 3.59 µM (active) in assay [18], 1.84 µM (active) in assay [19] and 39.1 µM (active) in assay [20].
Regarding `CC(=NNC(=S)N1CCCCC1)c1ccccn1`, the AC50 in [21] was 4.29 µM (active).
In the case of `O=C(c1cnc2ccccc2c1)N1CCCC1CN1CCC(n2c(=O)[nH]c3ccccc32)CC1` (centres undefined), the IC50 is 2.8 µM (active) on Phospholipase D1 and 3.75 µM (active) on Phospholipase D2.
